Source: US9409907B2, “Inhibitor compounds” (Cancer Research Technology Limited, priority 2012, dated 2016)

Molecular target: full length MPS1 (Homo sapiens (Human), UniProt P33981)
Assay: Measurement of inhibition of MPS1 kinase (Caliper EZ reader mobility-shift enzyme assay)
Assay type: biochemical
Conditions: full length MPS1 12.5 nM or 3 nM, H236 peptide 5 μM, ATP 10 μM, 60 min at room temperature
Procedure: Measurement of Inhibition of MPS1 Kinase
The reaction was carried out for 60 min at room temperature and stopped by the addition of buffer (10 μl) containing 20 mM EDTA, 0.05% (v/v) Brij-35, in 0.1M HEPES-buffered saline (Free acid, Sigma, UK). The plate was read on a Caliper EZ reader II (Caliper Life Sciences).
The % inhibition of the compounds is calculated relative to the means of selected control wells.

full length MPS1, sequence (P33981 whole entry): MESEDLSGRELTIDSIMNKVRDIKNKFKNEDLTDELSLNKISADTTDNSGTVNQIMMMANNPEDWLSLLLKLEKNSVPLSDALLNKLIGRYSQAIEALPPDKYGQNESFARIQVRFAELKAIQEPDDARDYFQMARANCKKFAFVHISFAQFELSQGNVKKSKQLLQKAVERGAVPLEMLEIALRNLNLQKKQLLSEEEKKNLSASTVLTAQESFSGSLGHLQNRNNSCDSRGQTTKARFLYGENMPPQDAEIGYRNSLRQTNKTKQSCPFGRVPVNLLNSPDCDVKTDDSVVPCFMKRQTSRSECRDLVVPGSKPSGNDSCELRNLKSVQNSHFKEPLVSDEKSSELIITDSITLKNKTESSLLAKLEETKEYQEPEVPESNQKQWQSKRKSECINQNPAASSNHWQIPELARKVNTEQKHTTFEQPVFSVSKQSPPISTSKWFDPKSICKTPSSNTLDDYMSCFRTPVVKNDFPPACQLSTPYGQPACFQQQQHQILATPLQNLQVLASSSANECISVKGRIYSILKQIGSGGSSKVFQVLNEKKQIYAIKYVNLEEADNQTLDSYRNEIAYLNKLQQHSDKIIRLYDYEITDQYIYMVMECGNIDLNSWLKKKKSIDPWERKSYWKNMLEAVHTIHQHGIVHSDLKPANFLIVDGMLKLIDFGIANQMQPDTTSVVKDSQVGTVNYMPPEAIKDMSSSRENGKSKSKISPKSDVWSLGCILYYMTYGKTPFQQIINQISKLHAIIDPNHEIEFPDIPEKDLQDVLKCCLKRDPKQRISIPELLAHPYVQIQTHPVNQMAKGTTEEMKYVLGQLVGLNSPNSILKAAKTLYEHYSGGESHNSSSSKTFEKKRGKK

Row | IC50 | SMILES
1 | 3 nM | COc1cc(-c2nncn2C)ccc1Nc1ncc2cc(C)nc(NCC(C)(C)OC)c2n1 [Example 180]
2 | 33 nM | COc1cc(-c2cnn(C)c2)ccc1Nc1ncc2ccnc(N(C)C3CCOCC3)c2n1 [Example 81, N2-(2-methoxy-4-(1-methyl-1H-pyrazol-4-yl)phenyl)-N8-methyl-N8-(tetrahydro-2H-pyran-4-yl)pyrido[3,4-d]pyrimidine-2,8-diamine]
3 | 3 nM | COc1cc(-c2nncn2C)ccc1Nc1ncc2c(C)cnc(NCC(C)(C)OC)c2n1 [Example 150, N^8-(2-methoxy-2-methylpropyl)-N^2-(2-methoxy-4-(4-methyl-4H-1,2,4-triazol-3-yl)phenyl)-5-methylpyrido[3,4-d]pyrimidine-2,8-diamine]
4 | 3 nM | COc1nc(-c2cnn(C)c2C)ccc1Nc1ncc2ccnc(NCC(C)(C)OC)c2n1 [Example 165, N^2-(6-(1,5-dimethyl-1H-pyrazol-4-yl)-2-methoxypyridin-3-yl)-N^8-(2-methoxy-2-methylpropyl)pyrido[3,4-d]pyrimidine-2,8-diamine]
5 | 45 nM | COc1cc(-c2cnn(C)c2)ccc1Nc1ncc2ccnc(N(C)C3CCCC3)c2n1 [Example 59, N8-cyclopentyl-N2-(2-methoxy-4-(1-methyl-1H-pyrazol-4-yl)phenyl)-N8-methylpyrido[3,4-d]pyrimidine-2,8-diamine]
6 | 49 nM | CCOc1cc(-c2cnn(C)c2)ccc1Nc1ncc2ccnc(NCC3CC3)c2n1 [Example 101, N8-(cyclopropylmethyl)-N2-(2-ethoxy-4-(1-methyl-1H-pyrazol-4-yl)phenyl)pyrido[3,4-d]pyrimidine-2,8-diamine]
7 | 11 nM | COc1cc(-c2cnn(C)c2)ccc1Nc1ncc2ccnc(N3CCCC4(COC4)C3)c2n1 [Example 123, N-(2-methoxy-4-(1-methyl-1H-pyrazol-4-yl)phenyl)-8-(2-oxa-6-azaspiro[3.5]nonan-6-yl)pyrido[3,4-d]pyrimidin-2-amine]
8 | 23 nM | COc1nc(-c2cnn(C)n2)ccc1Nc1ncc2ccnc(NCC(C)(C)OC)c2n1 [Example 167, N^8-(2-Methoxy-2-methylpropyl)-N^2-(2-methoxy-6-(2-methyl-2H-1,2,3-triazol-4-yl)pyridin-3-yl)pyrido[3,4-d]pyrimidine-2,8-diamine]
9 | 24 nM | COc1cc(Cl)ccc1Nc1ncc2ccnc(N3CCC4(COC4)C3)c2n1 [Example 178, N-(4-Chloro-2-methoxyphenyl)-8-(2-oxa-6-azaspiro[3.4]octan-6-yl)pyrido[3,4-d]pyrimidin-2-amine]
10 | 4 nM | COc1cc(-c2cnn(C)c2C)ccc1Nc1ncc2ccnc(NCC3(C)COC3)c2n1 [Example 146, N^2-(4-(1,5-dimethyl-1H-pyrazol-4-yl)-2-methoxyphenyl)-N^8-((3-methyloxetan-3-yl)methyl)pyrido[3,4-d]pyrimidine-2,8-diamine]
11 | 98 nM | COc1cc(C(=O)N2CC(OC)C2)ccc1Nc1cc2c(-c3cncnc3)cccc2cn1 [Example 15, (3-methoxy-4-((5-(pyrimidin-5-yl)isoquinolin-3-yl)amino)phenyl)(3-methoxyazetidin-1-yl)methanone]
12 | 3 nM | COc1cc(-c2cnn(C)c2)ccc1Nc1ncc2ccnc(N3CC4(COC4)C3)c2n1 [Example 115, N-(2-methoxy-4-(1-methyl-1H-pyrazol-4-yl)phenyl)-8-(2-oxa-6-azaspiro[3.3]heptan-6-yl)pyrido[3,4-d]pyrimidin-2-amine]
13 | 40 nM | Cc1nnc(-c2ccc(Nc3ncc4ccnc(N5CCC6(COC6)C5)c4n3)c(Cl)c2)o1 [Example 201]
14 | 8 nM | COCCNc1nccc2cnc(Nc3ccc(-c4cnn(C)c4)cc3OC)nc12 [Example 127, N^2-(2-Methoxy-4-(1-methyl-1H-pyrazol-4-yl)phenyl)-N^8-(2-methoxyethyl)pyrido[3,4-d]pyrimidine-2,8-diamine]
15 | 28 nM | COc1cc(C(=O)N(C)C)ccc1Nc1cc2c(-c3cnn(C)c3)cccc2cn1 [Example 25]
16 | 5 nM | COc1cc(-c2cnn(C)c2)ccc1Nc1ncc2ccnc(NCC(C)(C)OC)c2n1 [Example 86, N8-(2-methoxy-2-methylpropyl)-N2-(2-methoxy-4-(1-methyl-1H-pyrazol-4-yl)phenyl)pyrido[3,4-d]pyrimidine-2,8-diamine]
17 | 6 nM | Clc1cc(-c2cncnc2)ccc1Nc1ncc2ccnc(N3CCC4(COC4)C3)c2n1 [Example 200]

Row | IC50 | SMILES
18 | 3 nM | COc1nc(-c2cnc(C)n2C)ccc1Nc1ncc2ccnc(NCC(C)(C)OC)c2n1 [Example 162, N^2-(6-(1,2-Dimethyl-1H-imidazol-5-yl)-2-methoxypyridin-3-yl)-N^8-(2-methoxy-2-methylpropyl)pyrido[3,4-d]pyrimidine-2,8-diamine]
19 | 4 nM | COc1cc(N2CCC(N3CCOCC3)CC2)ccc1Nc1ncc2ccnc(NCC(C)(C)C)c2n1 [Example 170, N2-(2-methoxy-4-(4-morpholinopiperidin-1-yl)phenyl)-N8-neopentylpyrido[3,4-d]pyrimidine-2,8-diamine]
20 | 11 nM | COc1cc(-c2cnn(C)c2)ccc1Nc1ncc2ccnc(N3CCS(=O)(=O)CC3)c2n1 [Example 118, 4-(2-((2-methoxy-4-(1-methyl-1H-pyrazol-4-yl)phenyl)amino)pyrido[3,4-d]pyrimidin-8-yl)thiomorpholine 1,1-dioxide]
21 | 7 nM | COc1cc(-c2cnn(C)c2)ccc1Nc1ncc2ccnc(NC(C)CO)c2n1 (racemic) [Example 129, Racemic 2-(2-(2-Methoxy-4-(1-methyl-1H-pyrazol-4-yl)phenylamino)pyrido[3,4-d]pyrimidin-8-ylamino)propan-1-ol]
22 | 8 nM | COc1cc(C(=O)N2CCN(C)CC2)ccc1Nc1ncc2ccnc(NCC(C)(C)OC)c2n1 [Example 195]
23 | 3 nM | COc1cc(-c2cn(C)nc2C)ccc1Nc1ncc2ccnc(NCC(C)(C)OC)c2n1 [Example 190]
24 | 24 nM | COCC(C)(C)CNc1nccc2cnc(Nc3ccc(-c4cnn(C)c4)cc3OC)nc12 [Example 85, N8-(3-methoxy-2,2-dimethylpropyl)-N2-(2-methoxy-4-(1-methyl-1H-pyrazol-4-yl)phenyl)pyrido[3,4-d]pyrimidine-2,8-diamine]
25 | 71 nM | COc1cc(-c2cnn(C)c2)ccc1Nc1cc2c(-c3cnn(C)c3)cccc2cn1 [Example 16, N-(2-methoxy-4-(1-methyl-1H-pyrazol-4-yl)phenyl)-5-(1-methyl-1H-pyrazol-4-yl)isoquinolin-3-amine]
26 | 61 nM | COc1cc(C(=O)N2CC(OC)C2)ccc1Nc1cc2c(-c3cnn(CCN(C)C)c3)cccc2cn1 [Example 1, (4-((5-(1-(2-(Dimethylamino)ethyl)-1H-pyrazol-4-yl)isoquinolin-3-yl)amino)-3-methoxyphenyl)(3-methoxyazetidin-1-yl)methanone]
27 | 17 nM | COc1cc(-c2cnn(C)c2)ccc1Nc1ncc2ccnc(NC(C)(C)CO)c2n1 [Example 114]
28 | 7 nM | COc1cc(-c2cnn(C)c2)ccc1Nc1ncc2ccnc(NC3CCCC3)c2n1 [Example 39]
29 | 6 nM | COc1cc(-c2nncn2C)ccc1Nc1ncc2c(C)cnc(N3CC4(CCOC4)C3)c2n1 [Example 157, N-(2-methoxy-4-(4-methyl-4H-1,2,4-triazol-3-yl)phenyl)-5-methyl-8-(6-oxa-2-azaspiro[3.4]octan-2-yl)pyrido[3,4-d]pyrimidin-2-amine]
30 | 3 nM | COc1cc(-c2cnn(CCO)c2)ccc1Nc1ncc2ccnc(NC3CCOCC3)c2n1 [Example 44, 2-(4-(3-methoxy-4-((8-((tetrahydro-2H-pyran-4-yl)amino)pyrido[3,4-d]pyrimidin-2-yl)amino)phenyl)-1H-pyrazol-1-yl)ethanol]
31 | 3 nM | COc1nc(-c2cnnn2C)ccc1Nc1ncc2ccnc(NCC(C)(C)OC)c2n1 [Example 166, N^8-(2-Methoxy-2-methylpropyl)-N^2-(2-methoxy-6-(1-methyl-1H-1,2,3-triazol-5-yl)pyridin-3-yl)pyrido[3,4-d]pyrimidine-2,8-diamine]
32 | 8 nM | COc1cc(-c2cnn(C)c2)ccc1Nc1ncc2ccnc(N3CC(C#N)C3)c2n1 [Example 121, 1-(2-(2-methoxy-4-(1-methyl-1H-pyrazol-4-yl)phenylamino)pyrido[3,4-d]pyrimidin-8-yl)azetidine-3-carbonitrile]
33 | > 1000 nM | COc1cc(-c2cnn(C)c2)ccc1Nc1ncc2ccnc(NCC3(CO)COC3)c2n1 [Example 132, (3-((2-(2-Methoxy-4-(1-methyl-1H-pyrazol-4-yl)phenylamino)pyrido[3,4-d]pyrimidin-8-ylamino)methyl)oxetan-3-yl)methanol]

Row | SMILES | IC50
34 | COc1cc(-c2cnn(C)c2)ccc1Nc1ncc2ccnc(NCC3(C)CCOC3)c2n1 (racemic) [Example 117, N^2-(2-methoxy-4-(1-methyl-1H-pyrazol-4-yl)phenyl)-N^8-((3-methyltetrahydrofuran-3-yl)methyl)pyrido[3,4-d]pyrimidine-2,8-diamine] | 3 nM
35 | COc1cc(C(=O)N2CC(OC)C2)ccc1Nc1cc2c(-c3ccn(C)n3)cccc2cn1 [Example 12, (3-methoxy-4-((5-(1-methyl-1H-pyrazol-3-yl)isoquinolin-3-yl)amino)phenyl)(3-methoxyazetidin-1-yl)methanone] | 26 nM
36 | COc1cc(-c2cnn(C)c2)ccc1Nc1ncc2ccnc(NC[C@@]3(C)CCOC3)c2n1 [Example 142, (R)—N^2-(2-methoxy-4-(1-methyl-1H-pyrazol-4-yl)phenyl)-N^3-((3-methyltetrahydrofuran-3-yl)methyl)pyrido[3,4-d]pyrimidine-2,8-diamine] | 3 nM
37 | COc1cc(-c2cnn(C)c2)ccc1Nc1ncc2ccnc(N3CC(F)(F)C3)c2n1 [Example 63, 8-(3,3-difluoroazetidin-1-yl)-N-(2-methoxy-4-(1-methyl-1H-pyrazol-4-yl)phenyl)pyrido[3,4-d]pyrimidin-2-amine] | 25 nM
